Laboratory results published in ChEMBL document CHEMBL6078643, “Palladium-Mediated Bioorthogonal System for Prodrug Activation of N-Benzylbenzamide-Containing Tubulin Polymerization Inhibitors for the Treatment of Solid Tumors” (J Med Chem, 2024).
Activity calls are given as the source filed them. The calls are words filed in the database; no cut-off is given here.

Experiments:
Tubulin (Homo sapiens) [1] = molecular target: T1, Tubulin (Homo sapiens) (UniProt P68371+Q9H4B7+P0DPH7+P68366+Q13509+Q71U36+P04350+Q3ZCM7+P07437+P68363+Q9BQE3+Q6PEY2+Q13885+Q9BVA1+Q9BUF5); experiment: Inhibition of tubulin polymerization in human K562 cells assessed as decrease in alpha tubulin expression at 80 nM incubated for 24 hrs in presence of palladium resins by Western blotting analysis; type: cell-based
Tubulin (Homo sapiens) [2] = molecular target: T1, Tubulin (Homo sapiens); experiment: Inhibition of tubulin polymerization in human K562 cells assessed as decrease in beta tubulin expression at 80 nM incubated for 24 hrs in presence of palladium resins by Western blotting analysis; type: cell-based
K562 [3] = experiment: Induction of apoptosis in human K562 cells assessed as viable cells at 80 nM incubated for 72 hrs in presence of palladium resins by Annexin V-APC staining based flow cytometric analysis (reference value: 94.21%); type: functional; conditions: read-out: Activity
K562 [4] = experiment: Induction of apoptosis in human K562 cells assessed as late apoptotic cells at 80 nM incubated for 72 hrs in presence of palladium resins by Annexin V-APC staining based flow cytometric analysis (reference value: 1.36%); type: functional
K562 [5] = experiment: Induction of ROS generation in human K562 cells assessed as increase in DCF-positive cells incubated for 72 hrs by DCF-DA staining based flow cytometric analysis (reference value: 7.67%); type: functional
Tubulin (Homo sapiens) [6] = molecular target: T1, Tubulin (Homo sapiens); experiment: Inhibition of tubulin polymerization in human K562 cells assessed as decrease in polymerized alpha tubulin level at 80 nM incubated for 24 hrs in presence of palladium resins by Western blotting analysis; type: cell-based
[7] = Toxicity in Balb/c mouse xenografted with human HepG2 cells assessed as effect on lung at 20 mg/kg, iv administered daily in presence of palladium resins for 14 days by H and E staining based analysis; type: organism-based; conditions: in vivo, 336 h, time 14 day
K562 [8] = experiment: Induction of cell cycle arrest in human K562 cells assessed as accumulation of cells at G1 phase at 80 nM incubated for 72 hrs in presence of palladium resins by PI staining based flow cytometric analysis ( Rvb = 77.46 %); type: functional
K562 [9] = experiment: Induction of cell cycle arrest in human K562 cells assessed as accumulation of cells at G2/M phase at 80 nM incubated for 72 hrs by PI staining based flow cytometric analysis ( Rvb = 8.5 %); type: functional
[10] = Prodrug release in PBS buffer assessed as half release time of 5-fluoro-N-(3-hydroxy-4-methoxybenzyl)-2-morpholinobenzamide in presence of palladium resins at 75 uM by HPLC analysis; type: ADME
K562 [11] = experiment: Induction of cell cycle arrest in human K562 cells assessed as accumulation of cells at G2 phase at 80 nM incubated for 72 hrs by PI staining based flow cytometric analysis ( Rvb = 8.5 %); type: functional
HUVEC [12] = experiment: Antivascular activity against HUVEC cells assessed as inhibition of cell migration at 80 nM incubated for 24 hrs in presence of palladium resins by phase contrast microscopic analysis; type: functional, cell-based; conditions: Homo sapiens
H22 [13] = experiment: Select factor, ratio of test compound IC50 to 5-fluoro-N-(3-hydroxy-4-methoxybenzyl)-2-morpholinobenzamide IC50 for antiproliferative activity against mouse H22 cells assessed as reduction in cell viability incubated for 72 hrs by CCK-8 assay; type: functional
Tubulin (Homo sapiens) [14] = molecular target: T1, Tubulin (Homo sapiens); experiment: Disruption of microtubule organization in human K562 cells at 80 nM incubated for 72 hrs in presence of palladium resins by DAPI staining based confocal microscopic analysis; type: cell-based
K562 [15] = experiment: Cytotoxicity against human K562 cells assessed as parent drug 5-fluoro-N-(3-hydroxy-4-methoxybenzyl)-2-morpholinobenzamide mediated decrease in cell viability at 100 nM in presence of palladium resins incubated for 72 hrs by CCK-8 assay; type: functional, cell-based
HepG2 = experiment: Cytotoxicity against human HepG2 cell assessed as parent drug 5-fluoro-N-(3-hydroxy-4-methoxybenzyl)-2-morpholinobenzamide mediated decrease in cell viability at 100 nM in presence of palladium resins incubated for 72 hrs by CCK-8 assay; type: functional, cell-based
H22 [16] = experiment: Antiproliferative activity against mouse H22 cells assessed as reduction in cell viability incubated for 72 hrs by CCK-8 assay; type: functional, cell-based; conditions: H22, 72 h
K562 [17] = experiment: Induction of apoptosis in human K562 cells assessed as necrotic cells at 80 nM incubated for 72 hrs in presence of palladium resins by Annexin V-APC staining based flow cytometric analysis (reference value: 1.65%); type: functional
Tubulin (Homo sapiens) [18] = molecular target: T1, Tubulin (Homo sapiens); experiment: Inhibition of tubulin polymerization in human HepG2 cells assessed as decrease in beta tubulin expression at 80 nM incubated for 24 hrs in presence of palladium resins by Western blotting analysis; type: cell-based
[19] = Select factor, ratio of test compound IC50 to 5-fluoro-N-(3-hydroxy-4-methoxybenzyl)-2-morpholinobenzamide IC50 for antiproliferative activity against human THLE-2 cells assessed as reduction in cell viability incubated for 72 hrs by CCK-8 assay; type: toxicity, cell-based; conditions: read-out: Ratio IC50
K562 [20] = experiment: Induction of apoptosis in human K562 cells assessed as late apoptotic cells at 80 nM incubated for 72 hrs by Annexin V-APC staining based flow cytometric analysis (reference value: 1.36%); type: functional
K562 [21] = experiment: Induction of cell cycle arrest in human K562 cells assessed as accumulation of cells at G1 phase at 80 nM incubated for 72 hrs by PI staining based flow cytometric analysis ( Rvb = 77.46 %); type: functional
[22] = Antiproliferative activity against human THLE-2 cells assessed as reduction in cell viability incubated for 72 hrs by CCK-8 assay; type: toxicity, cell-based
[23] = Toxicity in Balb/c mouse xenografted with human HepG2 cells assessed as effect on heart at 20 mg/kg, iv administered daily in presence of palladium resins for 14 days by H and E staining based analysis; type: organism-based; conditions: in vivo, 336 h, time 14 day
K562 [24] = experiment: Antiproliferative activity against human K562 cells at 100 nM incubated for 72 hrs in presence of palladium resins by CCK-8 assay; type: functional, cell-based
Tubulin (Homo sapiens) [25] = molecular target: T1, Tubulin (Homo sapiens); experiment: In vivo inhibition of tubulin polymerization in human HepG2 cells xenografted in Balb/c mouse assessed as decrease in alpha tubulin expression at 20 mg/kg, iv administered daily for 14 days in presence of palladium resins incubated for 24 hrs by Western blot analysis; type: functional, organism-based; conditions: time 14.0 day
K562 [26] = experiment: Induction of cell cycle arrest in human K562 cells assessed as accumulation of cells at G2/M phase at 80 nM incubated for 72 hrs in presence of palladium resins by PI staining based flow cytometric analysis ( Rvb = 8.5 %); type: functional
K562 [27] = experiment: Antiproliferative activity against human K562 cells assessed as reduction in cell viability incubated for 72 hrs by CCK-8 assay; type: functional, cell-based; conditions: K562, 72 h
HUVEC [28] = experiment: Antivascular activity against HUVEC cells assessed as inhibition of capillary tube formation at 80 nM incubated for 6 hrs in presence of palladium resins by inverted microscopic analysis; type: functional, cell-based; conditions: Homo sapiens

inhibition (Tubulin (Homo sapiens) [1]): Active | inhibition (Tubulin (Homo sapiens) [2]): Active | inhibition (Tubulin (Homo sapiens) [6]): Active | t1/2 [10]: 7.2 h | Activity (Tubulin (Homo sapiens) [14]): Active | inhibition (Tubulin (Homo sapiens) [18]): Active | Activity (Tubulin (Homo sapiens) [25]): Active | IC50 (K562 [27]): 1100 nM
SMILES: C#CCOc1cc(CNC(=O)c2cc(F)ccc2N2CCOCC2)ccc1OC
viability at 0.08 µM (K562 [3]): 45.4% | Activity (K562 [4]): 27.82% | Activity (K562 [5]): 8.22% | Activity [7]: Non-toxic | Activity (K562 [8]): 58.6% | Activity (K562 [9]): 8.97% | Activity (K562 [11]): 8.97% | Activity (HUVEC [12]): Active | Ratio IC50 (H22 [13]): 39.6 | Activity (K562 [15]): Active | Activity (HepG2): Active | IC50 (H22 [16]): 805 nM | Activity (K562 [17]): 2.95% | selectivity ratio at 72 h [19]: 66.2 | Activity (K562 [20]): 1.96% | Activity (K562 [21]): 67.39% | IC50 at 72 h [22]: 1420 nM | Activity [23]: Non-toxic | Activity (K562 [24]): Active | Activity (K562 [26]): 12.3% | Activity (HUVEC [28]): Active
